Results: PubChem BioAssay AID1259407 (Chemical Carcinogenesis Research Information System (CCRIS), 2018)
Active and inactive are the calls of the source. How the calls were made is not given here.

Tested on: CCRIS mutagenicity, Ames/micronucleus/aberration tests
Test: CCRIS mutagenicity studies

O=NO
mutagenic call (End Point: IN VIVO MICRONUCLEUS, Test System: BONE MARROW POLYCHROMATIC ERYTHROCYTES, Species: MOUSE, Strain/Sex: DDY/MALE, Route: IP): inactive; negative
mutagenic call (End Point: IN VIVO MICRONUCLEUS, Test System: BONE MARROW POLYCHROMATIC ERYTHROCYTES, Species: MOUSE, Strain/Sex: DDY/MALE, Route: ORAL): inactive; negative
mutagenic call (End Point: In vitro chromosomal aberrations, Test System: Chinese hamster lung CHL/IU cells, Metabolic Activation: None): inactive; negative
mutagenic call (Test System: AMES SALMONELLA TYPHIMURIUM, Strain/Indicator: DJ400, Metabolic Activation: NONE, Method: PREINCUBATION): inactive; negative
mutagenic call (Test System: AMES SALMONELLA TYPHIMURIUM, Strain/Indicator: DJ400, Metabolic Activation: NONE, Method: STANDARD PLATE): inactive; negative
mutagenic call (Test System: AMES SALMONELLA TYPHIMURIUM, Strain/Indicator: DJ400, Metabolic Activation: RAT, LIVER, S-9, AROCLOR 1254, Method: PREINCUBATION): inactive; negative
mutagenic call (Test System: AMES SALMONELLA TYPHIMURIUM, Strain/Indicator: DJ400, Metabolic Activation: RAT, LIVER, S-9, AROCLOR 1254, Method: STANDARD PLATE): inactive; negative
mutagenic call (Test System: AMES SALMONELLA TYPHIMURIUM, Strain/Indicator: DJ460, Metabolic Activation: NONE, Method: PREINCUBATION): inactive; negative
mutagenic call (Test System: AMES SALMONELLA TYPHIMURIUM, Strain/Indicator: DJ460, Metabolic Activation: NONE, Method: STANDARD PLATE): inactive; negative
mutagenic call (Test System: AMES SALMONELLA TYPHIMURIUM, Strain/Indicator: DJ460, Metabolic Activation: RAT, LIVER, S-9, AROCLOR 1254, Method: PREINCUBATION): inactive; negative
mutagenic call (Test System: AMES SALMONELLA TYPHIMURIUM, Strain/Indicator: DJ460, Metabolic Activation: RAT, LIVER, S-9, AROCLOR 1254, Method: STANDARD PLATE): inactive; negative
mutagenic call (Test System: AMES SALMONELLA TYPHIMURIUM, Strain/Indicator: TA97, Metabolic Activation: NONE, Method: STANDARD PLATE): inactive; negative
mutagenic call (Test System: AMES SALMONELLA TYPHIMURIUM, Strain/Indicator: TA97, Metabolic Activation: RAT, LIVER, S-9, AROCLOR 1254, Method: STANDARD PLATE): inactive; negative
mutagenic call (Test System: AMES SALMONELLA TYPHIMURIUM, Strain/Indicator: TA98, Metabolic Activation: HAMSTER LIVER S-9, AROCLOR 1254 (30%), Method: PREINCUBATION): inactive; negative
mutagenic call (Test System: AMES SALMONELLA TYPHIMURIUM, Strain/Indicator: TA98, Metabolic Activation: HAMSTER, LIVER, S-9, AROCLOR 1254 (30%), Method: PREINCUBATION): inactive; negative
mutagenic call (Test System: AMES SALMONELLA TYPHIMURIUM, Strain/Indicator: TA98, Metabolic Activation: NONE, Method: PREINCUBATION): inactive; negative
mutagenic call (Test System: AMES SALMONELLA TYPHIMURIUM, Strain/Indicator: TA98, Metabolic Activation: NONE, Method: STANDARD PLATE): inactive; negative
mutagenic call (Test System: AMES SALMONELLA TYPHIMURIUM, Strain/Indicator: TA98, Metabolic Activation: RAT LIVER S-9, AROCLOR 1254 (30%), Method: PREINCUBATION): inactive; negative
mutagenic call (Test System: AMES SALMONELLA TYPHIMURIUM, Strain/Indicator: TA98, Metabolic Activation: RAT, LIVER, S-9, AROCLOR 1254 (30%), Method: PREINCUBATION): inactive; negative
mutagenic call (Test System: AMES SALMONELLA TYPHIMURIUM, Strain/Indicator: TA98, Metabolic Activation: RAT, LIVER, S-9, AROCLOR 1254, Method: STANDARD PLATE): inactive; negative
mutagenic call (Test System: AMES SALMONELLA TYPHIMURIUM, Strain/Indicator: TA98, Metabolic Activation: RAT, LIVER, S-9, Method: STANDARD PLATE): inactive; negative
mutagenic call (Test System: AMES SALMONELLA TYPHIMURIUM, Strain/Indicator: TA100, Metabolic Activation: HAMSTER LIVER S-9, AROCLOR 1254 (30%), Method: PREINCUBATION): active; positive
mutagenic call (Test System: AMES SALMONELLA TYPHIMURIUM, Strain/Indicator: TA100, Metabolic Activation: HAMSTER, LIVER, S-9, AROCLOR 1254 (30%), Method: PREINCUBATION): active; positive
mutagenic call (Test System: AMES SALMONELLA TYPHIMURIUM, Strain/Indicator: TA100, Metabolic Activation: NONE, Method: PREINCUBATION): active; positive
mutagenic call (Test System: AMES SALMONELLA TYPHIMURIUM, Strain/Indicator: TA100, Metabolic Activation: NONE, Method: STANDARD PLATE): active; positive
mutagenic call (Test System: AMES SALMONELLA TYPHIMURIUM, Strain/Indicator: TA100, Metabolic Activation: RAT LIVER S-9, AROCLOR 1254 (30%), Method: PREINCUBATION): active; positive
mutagenic call (Test System: AMES SALMONELLA TYPHIMURIUM, Strain/Indicator: TA100, Metabolic Activation: RAT, LIVER, S-9, AROCLOR 1254 (30%), Method: PREINCUBATION): active; positive
mutagenic call (Test System: AMES SALMONELLA TYPHIMURIUM, Strain/Indicator: TA100, Metabolic Activation: RAT, LIVER, S-9, AROCLOR 1254, Method: PREINCUBATION): active; positive
mutagenic call (Test System: AMES SALMONELLA TYPHIMURIUM, Strain/Indicator: TA100, Metabolic Activation: RAT, LIVER, S-9, AROCLOR 1254, Method: STANDARD PLATE): active; positive
mutagenic call (Test System: AMES SALMONELLA TYPHIMURIUM, Strain/Indicator: TA100, Metabolic Activation: RAT, LIVER, S-9, Method: STANDARD PLATE): active; positive
mutagenic call (Test System: AMES SALMONELLA TYPHIMURIUM, Strain/Indicator: TA102, Metabolic Activation: NONE, Method: PREINCUBATION): inactive; negative
mutagenic call (Test System: AMES SALMONELLA TYPHIMURIUM, Strain/Indicator: TA102, Metabolic Activation: NONE, Method: STANDARD PLATE): inactive; negative
mutagenic call (Test System: AMES SALMONELLA TYPHIMURIUM, Strain/Indicator: TA102, Metabolic Activation: RAT, LIVER, S-9, AROCLOR 1254, Method: PREINCUBATION): inactive; negative
mutagenic call (Test System: AMES SALMONELLA TYPHIMURIUM, Strain/Indicator: TA102, Metabolic Activation: RAT, LIVER, S-9, AROCLOR 1254, Method: STANDARD PLATE): inactive; negative
mutagenic call (Test System: AMES SALMONELLA TYPHIMURIUM, Strain/Indicator: TA104, Metabolic Activation: RAT, LIVER, S-9, AROCLOR 1254, Method: PREINCUBATION): active; positive
mutagenic call (Test System: AMES SALMONELLA TYPHIMURIUM, Strain/Indicator: TA1530, Metabolic Activation: NONE, Method: PREINCUBATION): active; positive
mutagenic call (Test System: AMES SALMONELLA TYPHIMURIUM, Strain/Indicator: TA1530, Metabolic Activation: NONE, Method: STANDARD PLATE): active; positive
mutagenic call (Test System: AMES SALMONELLA TYPHIMURIUM, Strain/Indicator: TA1530, Metabolic Activation: RAT, LIVER, S-9, AROCLOR 1254, Method: PREINCUBATION): active; positive
mutagenic call (Test System: AMES SALMONELLA TYPHIMURIUM, Strain/Indicator: TA1530, Metabolic Activation: RAT, LIVER, S-9, AROCLOR 1254, Method: STANDARD PLATE): active; positive
mutagenic call (Test System: AMES SALMONELLA TYPHIMURIUM, Strain/Indicator: TA1535, Metabolic Activation: NONE, Method: PREINCUBATION): active; positive
mutagenic call (Test System: AMES SALMONELLA TYPHIMURIUM, Strain/Indicator: TA1535, Metabolic Activation: NONE, Method: STANDARD PLATE): active; positive
mutagenic call (Test System: AMES SALMONELLA TYPHIMURIUM, Strain/Indicator: TA1535, Metabolic Activation: RAT, LIVER, S-9, AROCLOR 1254, Method: PREINCUBATION): active; positive
mutagenic call (Test System: AMES SALMONELLA TYPHIMURIUM, Strain/Indicator: TA1535, Metabolic Activation: RAT, LIVER, S-9, AROCLOR 1254, Method: STANDARD PLATE): active; positive
mutagenic call (Test System: AMES SALMONELLA TYPHIMURIUM, Strain/Indicator: TA1535, Metabolic Activation: RAT, LIVER, S-9, Method: STANDARD PLATE): active; positive
mutagenic call (Test System: AMES SALMONELLA TYPHIMURIUM, Strain/Indicator: TA1537, Metabolic Activation: NONE, Method: STANDARD PLATE): inactive; negative
mutagenic call (Test System: AMES SALMONELLA TYPHIMURIUM, Strain/Indicator: TA1537, Metabolic Activation: RAT, LIVER, S-9, AROCLOR 1254, Method: STANDARD PLATE): inactive; negative
mutagenic call (Test System: AMES SALMONELLA TYPHIMURIUM, Strain/Indicator: TA1538, Metabolic Activation: NONE, Method: STANDARD PLATE): inactive; negative
mutagenic call (Test System: AMES SALMONELLA TYPHIMURIUM, Strain/Indicator: TA1538, Metabolic Activation: RAT, LIVER, S-9, AROCLOR 1254, Method: STANDARD PLATE): inactive; negative
mutagenic call (Test System: AMES SALMONELLA TYPHIMURIUM, Strain/Indicator: TA1538, Metabolic Activation: RAT, LIVER, S-9, Method: STANDARD PLATE): inactive; negative
mutagenic call (Test System: AMES SALMONELLA TYPHIMURIUM, Strain/Indicator: YG1024, Metabolic Activation: NONE, Method: PREINCUBATION): inactive; negative
mutagenic call (Test System: AMES SALMONELLA TYPHIMURIUM, Strain/Indicator: YG1024, Metabolic Activation: NONE, Method: STANDARD PLATE): inactive; negative
mutagenic call (Test System: AMES SALMONELLA TYPHIMURIUM, Strain/Indicator: YG1024, Metabolic Activation: RAT, LIVER, S-9, AROCLOR 1254, Method: PREINCUBATION): inactive; negative
mutagenic call (Test System: AMES SALMONELLA TYPHIMURIUM, Strain/Indicator: YG1024, Metabolic Activation: RAT, LIVER, S-9, AROCLOR 1254, Method: STANDARD PLATE): inactive; negative
mutagenic call (Test System: CHINESE HAMSTER V-79, Strain/Indicator: V-79/6-THIOGUANINE, Metabolic Activation: NONE): active; positive
mutagenic call (Test System: E. COLI, Strain/Indicator: WP2, Metabolic Activation: NONE, Method: STANDARD PLATE): inactive; negative
mutagenic call (Test System: E. COLI, Strain/Indicator: WP2, Metabolic Activation: RAT, LIVER, S-9, AROCLOR 1254, Method: STANDARD PLATE): inactive; negative
mutagenic call (Test System: E.COLI, Strain/Indicator: WP2UVRA/PKM101, Metabolic Activation: NONE, Method: PREINCUBATION): inactive; negative
mutagenic call (Test System: E.COLI, Strain/Indicator: WP2UVRA/PKM101, Metabolic Activation: RAT LIVER S-9, PHENOBARBITAL AND 5,6-BENZOFLAVONE, Method: PREINCUBATION): inactive; negative
mutagenic call (Test System: MOUSE LYMPHOMA, Strain/Indicator: L5178Y (TK+/TK-), Metabolic Activation: NONE, Method: SUSPENSION/PLATE): active; positive
